Values joined by “and” are separate entries in the source; they are usually repeats but may differ in a detail not shown here. Equal values may be shown once. Read-outs that look alike come from different tables or passages of the source. One block for each molecule: values may come before it.
How the values were obtained:
[1] = target: T1, Human GGT1 (Homo sapiens, UniProt P19440); test: Initial rate studies with D-GpNA and L-GpNA, with or without acceptor GlyGly; type: biochemical; settings: for second order rate constant: rounded in discussion; for fold increase of Vmax in the presence of GlyGly: plus vs minus GlyGly
T1 construct: lacking the transmembrane domain; made in house; host or cells: Pichia pastoris
Protocol: Transpeptidation Reaction: The same assay buffer was used for both the hydrolysis reaction and the transpeptidation reaction. The transpeptidation reaction included 40 mM glycylglycine (glygly, Sigma, St. Louis, Mo.) as the acceptor. The concentration of the substrate for the transpeptidation reaction, L-GpNA (Sigma) was varied from 0.25 mM to 3 mM. The concentration of L-GpNA was 3 mM for experiments in which the concentration of glygly was varied. To initiate the transpeptidation reaction, 4 mU GGT were added.
1. […] 2, which describes a ping pong kinetic mechanism. […] 3 and 4. […] 5 (25).
In eq. […] Data for noncompetitive inhibition were fitted to eq. 6. […] 6 [25].
Initial Rate Studies with D-GpNA and L-GpNA: In this study, the inhibition of both the GGT hydrolysis and transpeptidation reactions by OU749 and a new series of thiadiazol sulfonamide analogs was studied. The hydrolysis and transpeptidation reactions were analyzed separately by using different stereo-isomers of the γ-glutamyl-p-nitroanilide (GpNA) substrate. The kinetics of both reactions were first characterized in the absence of inhibitors. Cleavage of the γ-glutamyl bond of either D-GpNA or L-GpNA releases p-nitroanaline, which has an OD405 of 7,680 M^−1 cm^−1, allowing for the reactions to be monitored continuously with high sensitivity. The D-glutamyl isomer of GpNA was used as the substrate for the hydrolysis reaction, in which water serves as the acceptor. The L-glutamyl isomer of GpNA, with glycylglycine (GlyGly) as an acceptor, was used for the transpeptidation reaction. L-GpNA can serve as both a substrate and a low affinity acceptor, while D-GpNA is unable to serve as an acceptor (18, 21, 26). Therefore, in the absence of an added acceptor GGT exclusively catalyzes a hydrolysis reaction with D-GpNA as the substrate. When L-GpNA is used as a substrate, the GGT reaction is a mixture of both the hydrolysis and transpeptidation reactions. Under these conditions, the rate of the reaction is the sum of hydrolysis and transpeptidation reactions, with the hydrolysis reaction contributing more at low L-GpNA concentrations and transpeptidation dominating at saturating substrate concentrations. […] However, the maximum rate (Vmax) obtained with L-GpNA was approximately 3-times faster than that measured with D-GpNA, and the KGpNA for L-GpNA was 5-times higher than that measured for D-GpNA. This is at least partially due to the ability of L-GpNA to serve as an acceptor, resulting in a transpeptidation reaction, which is faster than the hydrolysis reaction. Therefore, to study the hydrolysis reaction in isolation, D-GpNA was used as the substrate without any added acceptor.

[2] = target: T2, Human GGT1 (hGGT) (Homo sapiens, UniProt P19440); test: L-GpNA Transpeptidation Assay with GlyGly as acceptor; type: biochemical; set-up: lacking the transmembrane domain; made in house; host or cells: Pichia pastoris
Protocol: Transpeptidation Reaction: The same assay buffer was used for both the hydrolysis reaction and the transpeptidation reaction. The transpeptidation reaction included 40 mM glycylglycine (glygly, Sigma, St. Louis, Mo.) as the acceptor. […] The concentration of L-GpNA was 3 mM for experiments in which the concentration of glygly was varied. To initiate the transpeptidation reaction, 4 mU GGT were added.
1. […] 3 and 4. […] 5 (25).
L-GpNA Transpeptidation Assay: The assay has been described previously. […] The concentration of L-GpNA was 3 mM for experiments in which the concentration of GlyGly was varied. To initiate the transpeptidation reaction, 4 mU GGT were added.

[3] = target: T2, Human GGT1 (hGGT); test: D-GpNA Hydrolysis Assay (release of pNA, 405 nm, pH 7.4)
Protocol: Enzyme Isolation: Human GGT1 (P19440), lacking the transmembrane domain, was expressed in Pichia pastoris and isolated as previously described (14). […] One unit of GGT activity was defined as the amount of enzyme that released 1 μmol of paranitroaniline/min at 37° C. at pH 7.4 in the transpeptidation reaction.
The reaction was initiated with the addition of 19 mU GGT. The reaction was incubated at 37° C. and monitored continuously at 405 nm by a Bio-Rad model 680 microplate reader with Microplate Manager 5.2 software (Bio-Rad, Hercules, Calif.).
Data Analysis: Samples in each experiment were run in triplicate. Each inhibitor was evaluated in two or more independent experiments. Double reciprocal plots were generated to assess data quality and determine the correct rate equation for data fitting. Data were fitted using the proper rate equation and the Marquardt-Levenberg algorithm supplied with the Enzfitter program (BIOSOFT, Cambridge, UK). Kinetic parameters with standard errors were estimated using a simple weighting method.
Data adhering to Michaelis-Menten Kinetics were fitted to eq. 1. Data for initial rate patterns with D-, L-GpNA varied at different fixed levels of glygly were fitted to eq. […] Data for competitive and uncompetitive inhibition were fitted to eqs. 3 and 4. Data for the dependence of Vmax and Vmax/KD-GpNA on the concentration of activator were fitted using eq. 5 (25).
In eqs 1-6, Vmax are the initial and maximum rates, respectively, Ka and Kb are Michaelis constants for substrates A and B, respectively, and Kis and Kii are slope and intercept inhibition constants. In eq. 5, a is the value of Vmax or Vmax/KD-GpNA at zero activator/inhibitor, KID is the activation or inhibition constant, and KIN is a constant that causes the parameter to go to a constant value at infinite concentrations of X, the activator/inhibitor. The product a(KID/KIN) is the value of Vmax or Vmax/KD-GpNA at infinite activator/inhibitor (25). Data for noncompetitive inhibition were fitted to eq. 6. Data for the dependence of Vmax and Vmax/KD-GpNA on the concentration of activator were fitted using […].
Enzyme Isolation: hGGT (P19440), lacking the transmembrane domain, was expressed in Pichia pastoris and isolated as previously described. […] One unit of GGT activity was defined as the amount of enzyme that released 1 μmol of paranitroaniline/min at 37° C. at pH 7.4 in the transpeptidation reaction with L-GpNA.
D-GpNA Hydrolysis Assay: The assay was carried out as previously described. […] The reaction was initiated with the addition of 19 mU GGT as determined by the L-GpNA transpeptidation assay. The reaction was incubated at 37° C. and monitored continuously at 405 nm.

[4] = target: T3, hGGT (Homo sapiens, UniProt P19440); test: L-Glutamate Release Assay (Hydrolysis of GSH); type: biochemical; settings: for Ki: read-out: GSH Kii
T3 construct: lacking the transmembrane domain; made in house; host or cells: Pichia pastoris
Protocol: L-Glutamate Release Assay (Hydrolysis of GSH): This assay measures the production of glutamate from the hydrolysis of GSH by GGT enzyme and has been described in detail previously. The concentration of the substrate, GSH, was varied from 5 μM to 20 μM. The concentration of the inhibitors, OU749 and its analogs, were varied from 15.6 μM to 250 μM. The reaction was initiated with the addition of 10 mU hGGT. […] All compounds were also evaluated as inhibitors of glutamate dehydrogenase, the enzyme in the second half of the L-glutamate release assay. None of the compounds in this study inhibited glutamate dehydrogenase.

[5] = Table 5, read-out: GlyGly with L-GpNA Kis
[6] = Table 5, read-out: L-GpNA with GlyGly Kii
[7] = GlyGly varied, 3 mM L-GpNA, Table 2, read-out: Transpeptidation GlyGly Kis
[8] = L-GpNA varied, 40 mM GlyGly, Table 2, read-out: Transpeptidation L-GpNA Kii

T1 sequence (P19440 381-569 limits assumed): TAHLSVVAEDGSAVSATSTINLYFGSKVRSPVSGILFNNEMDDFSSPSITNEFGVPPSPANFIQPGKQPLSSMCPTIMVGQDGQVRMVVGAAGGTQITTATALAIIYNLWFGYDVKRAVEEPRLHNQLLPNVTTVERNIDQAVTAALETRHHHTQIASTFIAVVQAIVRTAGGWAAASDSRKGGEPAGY
T1 sequence (P19440 27-380 limits assumed): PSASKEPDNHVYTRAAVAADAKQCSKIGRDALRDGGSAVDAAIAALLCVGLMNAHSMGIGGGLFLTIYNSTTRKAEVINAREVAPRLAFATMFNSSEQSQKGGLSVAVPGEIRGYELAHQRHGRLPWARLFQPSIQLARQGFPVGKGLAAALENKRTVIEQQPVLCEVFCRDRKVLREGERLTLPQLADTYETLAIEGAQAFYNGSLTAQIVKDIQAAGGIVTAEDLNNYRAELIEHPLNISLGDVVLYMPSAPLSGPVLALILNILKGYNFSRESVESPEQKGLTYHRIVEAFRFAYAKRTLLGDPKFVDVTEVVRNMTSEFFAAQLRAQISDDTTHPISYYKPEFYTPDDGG
T3 sequence (P19440 381-569 limits assumed): as the sequence (P19440 381-569 limits assumed) above
T3 sequence (P19440 27-380 limits assumed): as the sequence (P19440 27-380 limits assumed) above
T2 sequence (P19440 381-569 limits assumed): as the sequence (P19440 381-569 limits assumed) above
T2 sequence (P19440 27-380 limits assumed): as the sequence (P19440 27-380 limits assumed) above

SMILES: N[C@@H](CCC(=O)Nc1ccc([N+](=O)[O-])cc1)C(=O)O [L-GpNA, L-gamma-glutamyl para-nitroanilide]
KGpNA relative to D-GpNA ([1]; minus acceptor): 5 times
V ([1]; minus acceptor): 6.5 ± 0.2 mM/min/nM
V/KGpNA ([1]; minus acceptor): 1.3e+08 ± 3.3e+06 M⁻¹ s⁻¹
second order rate constant ([1]; minus acceptor): 1.3e+08 M⁻¹ s⁻¹
KGlyGly ([1]; plus acceptor GlyGly): 9.9 ± 0.9 mM
V ([1]; plus acceptor GlyGly): 141 ± 11 mM/min/nM
V/KGlyGly ([1]; plus acceptor GlyGly): 2.33e+08 ± 1.7e+07 M⁻¹ s⁻¹
V/KGpNA ([1]; plus acceptor GlyGly): 1.95e+09 ± 1.5e+08 M⁻¹ s⁻¹
fold increase of Vmax in the presence of GlyGly [1]: 22 fold

SMILES: N[C@@H](CCC(=O)N[C@@H](CS)C(=O)NCC(=O)O)C(=O)O [GSH, glutathione, reference compound]
Ki ([2]; in the presence of 3 mM L-GpNA, read-out: Kii of GSH vs GlyGly): 3000 ± 500 µM
Ki ([2]; in the presence of 3 mM L-GpNA, read-out: Kis of GSH vs GlyGly): 800 ± 100 µM
Ki ([2]; in the presence of 40 mM GlyGly, read-out: Kii of GSH vs L-GpNA): 1700 ± 20 µM
Ki ([2]; in the presence of 40 mM GlyGly, read-out: Kis of GSH vs L-GpNA): 1400 ± 10 µM
Ki [3]: 10 ± 1.2 µM
Ki ([1]; absence of GlyGly, read-out: Kis of GSH vs L-GpNA): 73 ± 6 µM

SMILES: COc1ccc(Cc2nnc(NS(=O)(=O)c3ccc(Cl)c(Cl)c3)s2)cc1 [Compound 8]
Ki [2, 7]: 10.8 ± 0.8 µM
Ki [2, 8]: 18.2 ± 0.7 µM
Ki [3]: 3160 ± 90 µM
Ki ([4]; GSH hydrolysis, Table 6): > 250 µM

SMILES: O=[N+]([O-])c1ccc(S(=O)(=O)Nc2nnc(Cc3ccc(Cl)c(Cl)c3)s2)cc1 [Compound 20]
Ki ([2]; Table 3, read-out: Transpeptidation GlyGly Kis): 10 µM and 10.3 µM
Ki ([3]; read-out: D-GpNA Kii, Compound 20, Table 7): 78 ± 2 µM
Ki ([3]; read-out: Kii with D-GpNA, competitive inhibition of the hydrolysis reaction, Compound 20, competitive vs D-GpNA): 78 µM and 78.2 µM
Ki ([4]; Compound 20, inhibition of GSH hydrolysis, Table 7): 859 ± 83 µM

SMILES: N[C@H](CCC(=O)Nc1ccc([N+](=O)[O-])cc1)C(=O)O [D-GpNA, D-gamma-glutamyl para-nitroanalide]
V ([1]; minus acceptor): 2.1 ± 0.2 mM/min/nM
V/KGpNA ([1]; minus acceptor): 2.2e+08 ± 1.7e+06 M⁻¹ s⁻¹
second order rate constant ([1]; minus acceptor): 2.17e+08 M⁻¹ s⁻¹
KGlyGly ([1]; plus acceptor GlyGly): 7.0 ± 0.3 mM
V ([1]; plus acceptor GlyGly): 53 ± 11 mM/min/nM
V/KGlyGly ([1]; plus acceptor GlyGly): 1.27e+08 ± 2.5e+07 M⁻¹ s⁻¹
V/KGpNA ([1]; plus acceptor GlyGly): 2.12e+08 ± 4.17e+07 M⁻¹ s⁻¹
fold increase of Vmax in the presence of GlyGly [1]: 25 fold

Second part, the molecule after the results:

Ki [2, 5]: 15 ± 1 µM
Ki [2, 6]: 181 ± 20 µM
Ki [3]: 29 ± 3 µM
Ki ([4]; GSH hydrolysis, Table 5): 102 ± 16 µM
SMILES: Nc1ccc(Cc2nnc(NS(=O)(=O)c3ccc(N)cc3)s2)cc1 [Compound 23]

Ki [2, 5]: 24 ± 4 µM
Ki [2, 6]: 275 ± 12 µM
Ki [3]: 180 ± 5 µM
Ki ([4]; GSH hydrolysis, Table 5): 363 ± 35 µM
SMILES: CN(C)c1ccc(Cc2nnc(NS(=O)(=O)c3ccc(N)cc3)s2)cc1 [Compound 27]

Ki [2, 5]: 7 ± 1 µM
Ki [2, 6]: 54 ± 1 µM
Ki [3]: 56 µM
Ki ([4]; GSH hydrolysis, Table 5): 419 ± 27 µM
SMILES: Nc1ccc(S(=O)(=O)Nc2nnc(Cc3ccc(Cl)cc3)s2)cc1 [Compound 28]

Ki [2, 7]: 10 ± 0.4 µM
Ki [2, 8]: 22.7 ± 0.5 µM
Ki [3]: 73.3 ± 4 µM
Ki ([4]; GSH hydrolysis, Table 4): 506 ± 75 µM
fold less potent than OU749 in inhibiting GSH hydrolysis ([4]; relative to OU749): 1.3 fold
SMILES: COc1ccc(Cc2nnc(NS(=O)(=O)c3ccc(C)cc3)s2)cc1 [Compound 2]

Ki [2, 7]: 13.4 ± 0.8 µM
Ki [2, 8]: 32.5 ± 0.9 µM
Ki ([3]; read-out: Hydrolysis D-GpNA Kii, D-GpNA substrate, Table 2): 5530 ± 1460 µM
Ki ([4]; GSH hydrolysis, Table 6): > 250 µM
SMILES: COc1ccc(Cc2nnc(NS(=O)(=O)c3ccc(Cl)cc3)s2)cc1 [Compound 10]

Ki [2, 7]: 143 ± 8.7 µM
Ki [2, 8]: 150 ± 13 µM
Ki [3]: 341 ± 6.4 µM
fold less effective than OU749 in inhibiting hydrolysis of D-GpNA ([3]; relative to OU749): 2-5 fold
Ki ([4]; GSH hydrolysis, Table 4): > 250 µM
SMILES: COc1ccc(Cc2nnc(NS(=O)(=O)c3ccc(C(C)(C)C)cc3)s2)cc1 [Compound 7]

Ki [2, 5]: 42 ± 2 µM
Ki [2, 6]: 74 ± 4 µM
Ki [3]: 58 ± 6 µM
Ki ([4]; GSH hydrolysis, Table 5): 242 ± 6 µM
SMILES: Nc1ccc(S(=O)(=O)Nc2nnc(Cc3ccccc3)s2)cc1 [Compound 25]

Ki [2, 5]: 30 ± 5 µM
Ki [2, 6]: 129 ± 17 µM
Ki ([3]; read-out: D-GpNA Kii, Table 5): 109 ± 4 µM
Ki ([4]; GSH hydrolysis, Table 5): 121 ± 5 µM
SMILES: Cc1cccc(Cc2nnc(NS(=O)(=O)c3ccc(N)cc3)s2)c1 [Compound 24]
